Results as given in patent US20190167725A1, “COMPOSITION AND METHOD FOR IMPROVING EFFICACY OF STEM CELLS” (University-Industry Cooperation Group of Kyung Hee …, priority 2016, published 2019).

What was measured:
[1] = system: ST2 cells (mouse bone marrow-derived MSCs); conditions: 10 mM, 36 hours treatment, 10 days culture, colonies 1 mm or greater
Description: Then, the cells were added to a plate at a concentration of 5.7×10^4 cells/well and cultured under conditions of 37° C. and 5% CO2 for 10 days. The plate was then stained with a 1% crystal violet staining solution (Sigma-Aldrich) and the number of colonies was counted under a stereomicroscope. In particular, cell populations with a diameter of 1 mm or greater were considered as colonies.

[2] = system: ST2 cells (mouse bone marrow-derived MSCs); conditions: 0 mM to 10 mM in lower chamber, 12 hours
Description: The cells were maintained in RPMI1640 medium (Invitrogen) containing 10% FBS, 1% penicillin, and streptomycin (Invitrogen). The cells were cultured to a confluence of 80%, recovered with 0.25% trypsin/EDTA (Invitrogen), and subcultured in a ratio of 1:3 to 1:4. The cells which underwent 5 to 8 subcultures were used in the experiment. The cells were maintained in a 37° C. incubator containing 5% CO2.
Millicell culture plate inserts with a pore size of 8 μm (EMD Millipore) were coated with type I collagen (0.5 μg/mL). The ST2 cells (2.5×10^4 cells) were suspended in normal growth medium and added into an upper chamber. After culturing the cells for 5 to 6 hours, the medium was replaced with DMEM medium containing 2% FBS and 1% penicillin and streptomycin.
After culturing for an additional 12 hours, each insert was fixed with 4% formaldehyde in the presence of PBS at room temperature for 10 minutes. The ST2 cells were stained with a hematoxylin solution for 30 minutes, and the cells remaining on the upper chamber membrane were removed using cotton swabs. The lower chamber membrane was confirmed using the Nikon ECLIPSE TS 100 microscope. The number of cells in each cell image was counted using Adobe Photoshop CS6.

[3] = system: mouse bone marrow-derived MSCs; conditions: 200 mM in drinking water for 7 days, vs drinking water without sodium acetate
Description: Each C57BL/6 mouse was fed drinking water with or without sodium acetate (200 mM) for 7 days, and femurs were collected from each mouse. The collected femurs were crushed using a mortar, treated with 0.2% type I collagenase (Worthington), and thereby the bone marrow cells attached to the bones were collected.

[4] = system: ST2 cells (mouse bone marrow-derived MSCs); conditions: 10 mM, 12 hours, growth factor reduced Matrigel
Description: Then, the upper part of each insert was coated with 50 μL of growth factor reduced Matrigel (BD Bioscience). […] The lower chamber membrane was confirmed using a Nikon ECLIPSE TS 100 microscope.

[5] = system: hematopoietic progenitor cells (Lin-/Sca1+/c-Kit+, LSK); conditions: sodium acetate 4 nmol/kg subcutaneous, blood collected after 10 minutes, vs normal control group
Description: Populations of circulating hematopoietic progenitor cells (HPCs), lineage negative, Sca-1 positive, and c-Kit positive (Lin^−/Sca1^+/c-Kit^+, LSK) cells were analyzed by a flow cytometry analyzer.
Monocytes were separated by Ficoll centrifugation. Then, hematopoietic progenitor cells were examined using anti-mouse CD4-FITC (Biolegend, San Diego, Calif.), anti-mouse CD49b-FITC (Biolegend), anti-mouse CD11b-FITC (Biolegend), anti-mouse B220-FITC (Biolegend), anti-mouse Gr-1-FITC (Biolegend), anti-mouse CD8-FITC (Biolegend), anti-mouse Ly-6A/E (Sca-1)-PE (Biolegend), and anti-mouse CD117 (c-Kit)-APC (Biolegend).

[6] = system: human bone marrow-derived MSCs (hMSCs); conditions: 10 mM, two subcultures, 14 days culture, colonies 3 mm or greater
Description: Then, the cells were added at a concentration of 5×10^2 cells/well (10 cm dish) to low-glucose DMEM (GE Healthcare Life Sciences) containing 10% FBS, 1% penicillin and streptomycin (Invitrogen), and 1% L-glutamine in a plate, and the plate was incubated under conditions of 37° C. and 5% CO2 for 14 days. The plate was then fixed with 100% methanol, stained with a 1% crystal violet staining solution (Sigma-Aldrich), and the number of colonies was counted under a stereomicroscope. In particular, cell populations of human bone marrow-derived MSCs with a diameter of 3 mm or greater were considered as colonies.

IL-10 = conditions: 10 mM, 48 hours, ST2 cells, vs untreated control (CON)
Description: (§1) ST2 cells (3.8×10^5 cells) were added to a 6-well plate under the condition of normal growth medium and cultured overnight. The medium was replaced with low-glucose DMEM medium without FBS and the cells were cultured for 18 hours. Then, the cells were treated with 10 mM sodium acetate (C2) for 48 hours or not treated (CON).
(§2) A cell lysate was obtained from the sample, and total RNA was isolated using TRIzol. The cDNA was synthesized from the total RNA, and the expression levels of mRNAs of VEGF and IL-10 in cells were measured by real-time PCR using primers for VEGF and IL-10 and SYBR green PCR Master Mix (fluorescent material).

VEGF = conditions: 10 mM, 48 hours, ST2 cells, vs untreated control (CON)
Description: as §1, §2

[7] = system: human bone marrow-derived MSCs (hMSCs); conditions: concentration series, serum-free DMEM
Source text: The human bone marrow-derived MSCs (hMSCs) were obtained from Lonza (Basel, Switzerland) and cultured in MSCGM medium (Lonza). Cells which underwent 3 to 6 subcultures were used in the experiment.

CCC(=O)[O-].[Na+] [sodium propionate]
colony-forming ability (CFU-F) of mouse bone marrow-derived MSCs [1]: enhancement of a CFU-F-forming ability | mobility of ST2 cells (number of migrated cells) [2]: increase in a manner dependent on the concentrations

CCCC(=O)[O-].[Na+] [sodium butyrate]
mobility of ST2 cells (number of migrated cells) [2]: increase in a manner dependent on the concentrations

CC(=O)[O-].[Na+] [sodium acetate]
colony-forming ability (CFU-F) of mouse bone marrow-derived MSCs [1]: significantly increased | increase in frequency of cell population of mouse bone marrow-derived MSCs (CFU-F) [3]: about 2 fold | increase in size of cell population of mouse bone marrow-derived MSCs (CFU-F) [3]: about 2 fold | mobility of ST2 cells (number of migrated cells) [2]: increase in a manner dependent on the concentration | invasion (number of cells through Matrigel) [4]: significantly increased | hematopoietic progenitor cells (LSK) in the peripheral blood [5]: enhancement of mobility from the bone marrow to the peripheral blood | enhancement of colony-forming ability (CFU-F) of hMSCs [6]: about 5 fold | increase of expression of IL-10 mRNA (IL-10): about 2.4 fold | increase of expression of VEGF mRNA (VEGF): about 2.5 fold | mobility of human bone marrow-derived MSCs (hMSCs) [7]: increased in a manner dependent on the concentration
